The record followed here is ChEMBL document CHEMBL4130365, “An overview of benzo[b]thiophene-based medicinal chemistry” (Eur J Med Chem, 2017).

The IC50 is the concentration needed to halve the response being measured. As usually defined, the inhibition in vivo is the relative decrease from the control value, in per cent. As a reminder, the GI50 is the concentration that inhibits growth by half. A lower GI50 goes with greater sensitivity of the cells. For orientation: inhibition means the drop in the measured response relative to a control, in per cent.

Assay [1] concerns the target T1, Peroxisome proliferator-activated receptor gamma (Homo sapiens) (UniProt P37231).
T1 sequence (whole entry): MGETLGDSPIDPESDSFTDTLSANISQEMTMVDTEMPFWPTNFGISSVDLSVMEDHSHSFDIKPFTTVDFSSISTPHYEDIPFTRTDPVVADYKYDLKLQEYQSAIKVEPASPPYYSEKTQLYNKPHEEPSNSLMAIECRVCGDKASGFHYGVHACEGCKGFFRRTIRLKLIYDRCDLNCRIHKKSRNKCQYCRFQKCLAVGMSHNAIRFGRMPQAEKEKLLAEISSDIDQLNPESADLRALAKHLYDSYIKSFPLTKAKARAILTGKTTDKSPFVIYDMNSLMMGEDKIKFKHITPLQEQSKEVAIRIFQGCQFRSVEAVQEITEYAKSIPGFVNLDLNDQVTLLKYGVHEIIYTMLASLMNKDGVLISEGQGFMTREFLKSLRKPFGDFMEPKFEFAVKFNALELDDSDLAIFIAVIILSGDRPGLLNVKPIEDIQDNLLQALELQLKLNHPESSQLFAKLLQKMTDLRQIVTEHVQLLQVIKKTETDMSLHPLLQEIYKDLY
The experiment in a line: Transactivation of GAL4 DBD-fused human PPARgamma LBD (174 to 475 residues) expressed in human HepG2 cells harboring pGL3-promoter-GAL4 at 28 uM after 24 hrs by luciferase reporter gene assay relative to control. The format is cell-based.

Another assay relates to Bacillus subtilis. The assay is described as follows: Antibacterial activity against Bacillus subtilis at 5 ug/disc. In kind it is functional. To be noted: read-out: IZ.
In assay [2] the test system is Staphylococcus aureus. The assay is described as follows: Antibacterial activity against Staphylococcus aureus at 5 ug/disc. The conditions noted are these: read-out: IZ. In kind it is functional.
Another assay relates to Candida. The experiment in a line: Antifungal activity against Candida pannical at 1000 ug/ml after 48 hrs by filter paper disc method. The format is functional. The conditions noted are these: read-out: IZ.
For a further assay, the system named is Aspergillus niger. The experiment in a line: Antifungal activity against Aspergillus niger at 1000 ug/ml after 48 hrs by filter paper disc method. To be noted: read-out: IZ. The format is functional.
Assay [3] concerns Escherichia coli. The experiment in a line: Antibacterial activity against Escherichia coli ATCC 35218 at 1000 ug/ml after 48 hrs by filter paper disc method. The conditions noted are these: ATCC 35218, 48 h, read-out: IZ. The format is functional.
In the next assay the test system is Bacillus spizizenii. The assay is described as follows: Antibacterial activity against Bacillus subtilis ATCC 6633 at 1000 ug/ml after 48 hrs by filter paper disc method. In kind it is functional. To be noted: ATCC 6633, 48 h, read-out: IZ.
A further assay has as its system Streptococcus pneumoniae. The assay is described as follows: Antibacterial activity against Streptococcus pneumoniae at 1000 ug/ml after 48 hrs by filter paper disc method. In kind it is functional. The conditions noted are these: read-out: IZ.
Assay [4] deals with Staphylococcus aureus. The assay is described as follows: Antibacterial activity against Staphylococcus aureus ATCC 25923 at 40 ug/ml after 48 hrs by filter paper disc method. In kind it is functional. The conditions noted are these: ATCC 25923, 48 h, read-out: IZ.
The test system of assay [5] is Rattus norvegicus. The experiment in a line: Inhibition of glucose-induced sorbitol accumulation in sciatic nerve of streptozotocin-induced diabetic rat model administered via oral gavage at 4 to 24 hrs post streptozotocin treatment measured at 27 hrs post streptozotocin treatment relative to control. In kind it is functional.
Assay [6] concerns Staphylococcus aureus. The experiment in a line: Antibacterial activity against Staphylococcus aureus ATCC 25923 at 1000 ug/ml after 48 hrs by filter paper disc method. In kind it is functional. The conditions noted are these: ATCC 25923, 48 h, read-out: IZ.
The next assay deals with Beta-secretase 1 (Homo sapiens, UniProt P56817). The assay is described as follows: Inhibition of BACE1 (unknown origin).
For a further assay, the target named is Tubulin. The assay is described as follows: Inhibition of tubulin polymerization (unknown origin). In kind it is protein-complex assay, Homo sapiens.
The test system of assay [7] is Rattus norvegicus. The assay is described as follows: Anti-inflammatory activity in rat assessed as inhibition of cotton pellet-induced granuloma at 100 mg/kg relative to control. In kind it is functional.
In a further assay the test system is DU-145. The assay is described as follows: Growth inhibition of human DU145 cells. The format is functional.
For another assay, the system named is NCI-H460. The assay is described as follows: Growth inhibition of human NCI-H460 cells. In kind it is functional, cell-based.
The test system of the next assay is SK-N-SH. The assay is described as follows: Growth inhibition of human SK-N-SH cells. In kind it is functional.
The next assay has as its system BXPC-3. The assay is described as follows: Growth inhibition of human BxPC3 cells. In kind it is functional.
Another assay has as its system SW-1736. The assay is described as follows: Growth inhibition of human SW1736 cells. In kind it is functional.
The next assay deals with FaDu. The experiment in a line: Growth inhibition of human FADU cells. The format is functional.
The test system of another assay is MCF7. The assay is described as follows: Inhibition of 17beta-estradiol-induced human MCF7 cells proliferation assessed as reduction in [3H]thymidine incorporation preincubated for 48 hrs followed by [3H]thymidine addition measured after 4 hrs by liquid scintillation counting method. The format is functional, cell-based. (In general: Dividing cells build labelled thymidine or BrdU into new DNA.)

Assay [8] in a line: Antioxidant activity assessed as inhibition of superoxide anion radical formation after 5 mins in presence of PMS and NADH by nitroblue tetrazolium method relative to control. The format is functional.
Another assay has as its target Acetylcholinesterase (Homo sapiens, UniProt P22303). The assay is described as follows: Inhibition of AChE (unknown origin) using acetylthiocholine as substrate by Ellman's method relative to control. The conditions noted are these: concentration not given here. (DTNB colorimetry detects thiols as they appear.)
Assay [9] relates to Escherichia coli. The assay is described as follows: Antibacterial activity against Escherichia coli ATCC 35218 at 40 ug/ml after 48 hrs by filter paper disc method. To be noted: ATCC 35218, 48 h, read-out: IZ. The format is functional.

In brackets after ≈: the same amount, converted by molar mass.

Acetylcholinesterase, sequence (P22303 whole entry): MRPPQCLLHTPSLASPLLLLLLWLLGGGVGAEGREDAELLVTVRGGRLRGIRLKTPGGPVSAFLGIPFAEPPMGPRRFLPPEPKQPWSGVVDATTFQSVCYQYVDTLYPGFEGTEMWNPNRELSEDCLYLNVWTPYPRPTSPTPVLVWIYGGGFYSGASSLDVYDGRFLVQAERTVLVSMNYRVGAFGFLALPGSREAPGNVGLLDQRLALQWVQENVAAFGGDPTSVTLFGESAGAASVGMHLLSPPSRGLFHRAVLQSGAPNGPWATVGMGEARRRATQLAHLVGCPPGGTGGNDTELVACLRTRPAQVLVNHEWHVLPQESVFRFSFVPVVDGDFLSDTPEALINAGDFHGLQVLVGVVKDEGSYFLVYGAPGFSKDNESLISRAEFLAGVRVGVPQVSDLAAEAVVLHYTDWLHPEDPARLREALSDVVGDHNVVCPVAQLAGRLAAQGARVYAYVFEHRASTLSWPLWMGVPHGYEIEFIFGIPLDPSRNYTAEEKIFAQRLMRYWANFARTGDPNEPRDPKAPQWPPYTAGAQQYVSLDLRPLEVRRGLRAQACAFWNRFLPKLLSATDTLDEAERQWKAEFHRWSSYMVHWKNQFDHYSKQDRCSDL
Beta-secretase 1, sequence (P56817 whole entry): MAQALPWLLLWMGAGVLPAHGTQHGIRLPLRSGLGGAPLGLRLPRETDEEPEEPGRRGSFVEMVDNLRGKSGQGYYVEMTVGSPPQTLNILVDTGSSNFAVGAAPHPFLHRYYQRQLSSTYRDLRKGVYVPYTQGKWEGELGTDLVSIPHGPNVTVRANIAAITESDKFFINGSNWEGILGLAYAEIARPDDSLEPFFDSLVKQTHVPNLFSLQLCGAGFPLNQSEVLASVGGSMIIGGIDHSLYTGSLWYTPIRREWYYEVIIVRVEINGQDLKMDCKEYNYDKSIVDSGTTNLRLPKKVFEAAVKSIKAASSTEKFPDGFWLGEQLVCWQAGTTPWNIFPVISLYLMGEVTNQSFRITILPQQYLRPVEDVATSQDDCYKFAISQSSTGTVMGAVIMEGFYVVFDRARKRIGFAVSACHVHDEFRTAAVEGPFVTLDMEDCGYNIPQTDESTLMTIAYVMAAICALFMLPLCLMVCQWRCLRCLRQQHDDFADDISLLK

In [1], `C[S+]([O-])CC(=O)c1cc2ccccc2s1` (centres undefined) registered an Activity of 121%.

With `COc1cccc(C2OC(c3sc4ccccc4c3Cl)=NN2C(C)=O)c1` (centres undefined), the zone of inhibition at 5 µg/disc in the assay on Bacillus subtilis came to 27 mm; with Staphylococcus aureus [2] it was 30 mm.

Regarding `O=c1c2ccccc2nc(-c2sc3ccccc3c2Cl)n1-c1ccc(F)cc1`, the zone of inhibition at 1000 µg/mL in the assay on Candida came to 14 mm; in the assay with Aspergillus niger, 17 mm.

`O=C(c1ccsc1)c1cccs1` gave an Activity in assay [1] of 114%.

Regarding `O=c1[nH]c(-c2sc3ccccc3c2Cl)nc2ccccc12`, the zone of inhibition at 1000 µg/mL in the assay on Escherichia coli [3] came to 16 mm; in the assay with Bacillus spizizenii it was 15 mm.

Consider `CCOC(=N)n1cnc2c(sc3cc(F)ccc32)c1=O`, for which the values for the zone of inhibition at 1000 µg/mL in the assay on Streptococcus pneumoniae and in the assay with Bacillus spizizenii were 25 mm and 24 mm, respectively. Also, in the assay on Staphylococcus aureus [4], the zone of inhibition at 40 µg/mL was determined as 25 mm.

Consider `O=C(O)Cc1nn(Cc2nc3cc(C(F)(F)F)ccc3s2)c(=O)c2ccccc12` [ZOPOLRESTAT], for which, in the assay with Rattus norvegicus [5], the “inhibition (INH)” value is 80%.

For `COc1ccc(C2CC(c3ccc(NC(=O)c4sc5ccccc5c4Cl)cc3)=NN2)cc1` (centres undefined), the zone of inhibition at 1000 µg/mL with Staphylococcus aureus [6] came to 14 mm.

Take `O=c1c2ccccc2nc(-c2sc3ccccc3c2Cl)n1O`: the zone of inhibition at 1000 µg/mL was 12 mm in the assay on Escherichia coli [3] and 16 mm in the assay on Bacillus spizizenii.

For the compound `COC(=O)c1cc(C)nc2sc3cccc(OC)c3c12`, the IC50 on Beta-secretase 1 was found to be 600 nM.

As for `COc1ccc(-c2sc3cc(OC)ccc3c2C(=O)c2cc(OC)c(OC)c(OC)c2)cc1`, the IC50 at Tubulin turned out to be 40000 nM.

`Cc1cc2ccc(O)cc2n(NC(=O)c2sc3cc(F)ccc3c2N)c1=O`: the zone of inhibition at 1000 µg/mL in the assay with Staphylococcus aureus [6] was 23 mm; with Streptococcus pneumoniae, 22 mm; with Bacillus spizizenii, 25 mm.

For the compound `COc1ccc2cc(/C=N/n3cnc4sc5c(c4c3=O)CCCC5)ccc2c1`, the inhibition in vivo at 100 mg/kg with Rattus norvegicus [7] amounted to 28.3%.

As for `COc1ccc(-c2c(Oc3cc(OC)c(OC)c(OC)c3)c3ccc(OC)cc3[s+]2[O-])cc1` (centres undefined), the GI50 with DU-145 worked out at 7.3 µg/mL (≈ 15.6 µM); in the assay with NCI-H460, 3.2 µg/mL (≈ 6.83 µM); with SK-N-SH, 1.9 µg/mL (≈ 4.06 µM); with BXPC-3, 2.1 µg/mL (≈ 4.48 µM); in the assay on SW-1736 it was 3.7 µg/mL (≈ 7.9 µM); in the assay on FaDu, 3.4 µg/mL (≈ 7.26 µM).

In the case of `O=C(c1ccc(OCCN2CCCCC2)cc1)c1c(-c2ccc(O)cc2)sc2cccc(O)c12`, the IC50 with MCF7 stood at 190 nM.

`CCOC(=O)c1c(NC(=O)/C(C#N)=C(/S)Nc2ccccc2)sc2c1CCCC2`: in assay [8], the inhibition was 57.1%.

As for `CCOC(=O)c1c(NC(=O)c2c(NC(=O)CC#N)sc3c2CCC3)sc2c1CCCC2`, the inhibition in assay [8] was determined as 61.4%.

For the compound `O=C(CSc1nnc(-c2sc3ccccc3c2Cl)[nH]1)c1ccc(F)cc1`, the zone of inhibition at 1000 µg/mL worked out at 16 mm in the assay with Staphylococcus aureus [6] and 15 mm in the assay on Bacillus spizizenii.

At Tubulin, `COc1ccc2c(C(O)c3ccc(OC)c(O)c3)c(-c3cc(OC)c(OC)c(OC)c3)sc2c1` (centres undefined) gave an IC50 of 6100 nM.

As for `O=C(c1ccc(OCCN2CCCCC2)cc1)c1c(-c2ccc(Cl)cc2)sc2cc(O)ccc12`, the IC50 with MCF7 was found to be 1 nM.

As to `COc1ccc(C2OC(c3sc4ccccc4c3Cl)=NN2C(C)=O)cc1` (centres undefined), the zone of inhibition at 5 µg/disc with Bacillus subtilis and in the assay on Staphylococcus aureus [2] was 28 mm each time.

Take `NC(=O)c1c(NC(=O)CN2CCN(Cc3ccccc3)CC2)sc2c1CCCC2`: on Acetylcholinesterase, the inhibition worked out at 56.7%.

`CCOC(=O)c1c(NC(=O)CN2CCN(Cc3ccccc3)CC2)sc2c1CCCC2` registered an inhibition against Acetylcholinesterase of 38.4%.

On to `Cc1cccc(NC(=O)Nc2sc3ccccc3c2Cl)c1`, for which the zone of inhibition at 40 µg/mL in the assay with Escherichia coli [9] was 13 mm.
